Experimental data reported in patent US10370642B2, “Hematopoietic progenitor cell populations having affinity for E-selectin / L-selectin” (priority 2000, dated 2019).

Experiments:
E-selectin [1] = target: T1, E-selectin (Homo sapiens, UniProt P16581); test: CHO-E cell rolling on immobilized immunoprecipitates, parallel-plate flow chamber; assay type: cell-based; conditions: immunoprecipitates on plastic; 2.8 dynes/cm^2
T1 construct: stably transfected with full-length cDNA encoding human E-selectin; expressed in transfected cells
T1 sequence (P16581 22-610): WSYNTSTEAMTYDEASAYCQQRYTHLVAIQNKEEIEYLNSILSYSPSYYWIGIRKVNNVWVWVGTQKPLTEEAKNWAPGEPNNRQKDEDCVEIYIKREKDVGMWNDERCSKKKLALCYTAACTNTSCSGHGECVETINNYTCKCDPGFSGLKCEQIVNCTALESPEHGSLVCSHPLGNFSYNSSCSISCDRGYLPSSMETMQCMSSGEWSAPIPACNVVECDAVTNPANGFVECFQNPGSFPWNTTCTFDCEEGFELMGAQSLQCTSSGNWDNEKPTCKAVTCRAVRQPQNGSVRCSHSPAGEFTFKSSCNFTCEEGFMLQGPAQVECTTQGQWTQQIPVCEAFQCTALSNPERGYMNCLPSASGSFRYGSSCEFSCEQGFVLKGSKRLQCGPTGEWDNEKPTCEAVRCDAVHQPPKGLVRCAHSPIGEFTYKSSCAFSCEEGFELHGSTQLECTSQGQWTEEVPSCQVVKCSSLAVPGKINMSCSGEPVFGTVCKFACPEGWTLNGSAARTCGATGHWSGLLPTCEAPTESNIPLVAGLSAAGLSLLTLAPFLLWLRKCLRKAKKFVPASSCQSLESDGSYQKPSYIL
Description: CD44 was immunoprecipitated from untreated cell lysates or from cell lysates treated with N-glycosidase-F (0.8 U/ml) Vibrio cholerae neuraminidase (0.1 U/ml) or a-L-fucosidase (80 mU/ml), and PSGL-1 was immunoprecipitated from untreated cell lysates as previously described (Sackstein and Dimitroff, 2000; Dimitroff et al., 2000).
CD44 or PSGL-1 immunoprecipitates were spotted onto plastic petri dishes, fixed in 3% glutaraldehyde and incubated in 0.2M lysine to block unreactive aldehyde groups, and then non-specific binding was prevented by incubating in 100% FBS for 1 hr at RT. Fixed spots were also treated with Vibrio cholerae neuraminidase (0.1 U/ml assay medium), which was overlaid onto the spots and incubated at 37° C. for 1 hr. […] The flow rate was then increased to achieve a shear stress of 2.8 dynes/cm^2. The frequency of cells rolling per 100× magnification field was determined, and data were expressed as the mean±standard deviation of 8 fields visualized from a minimum of 3 experiments.

L-selectin [2] = target: T2, L-selectin (Rattus norvegicus, UniProt P30836); test: Stamper-Woodruff assay, lymphocyte adherence to immunoprecipitated CD44 and PSGL-1; assay type: cell-based; conditions: 0.75 μg/spot (PSGL-1 1 μg/spot); 80 rpm, 4° C.; 100× mag.
T2 construct: L-selectin naturally expressed on leukocytes; endogenous in cells; host or cells: lymphocytes (rat thoracic duct lymphocytes; human PBMC also prepared)
T2 sequence (P30836 39-372): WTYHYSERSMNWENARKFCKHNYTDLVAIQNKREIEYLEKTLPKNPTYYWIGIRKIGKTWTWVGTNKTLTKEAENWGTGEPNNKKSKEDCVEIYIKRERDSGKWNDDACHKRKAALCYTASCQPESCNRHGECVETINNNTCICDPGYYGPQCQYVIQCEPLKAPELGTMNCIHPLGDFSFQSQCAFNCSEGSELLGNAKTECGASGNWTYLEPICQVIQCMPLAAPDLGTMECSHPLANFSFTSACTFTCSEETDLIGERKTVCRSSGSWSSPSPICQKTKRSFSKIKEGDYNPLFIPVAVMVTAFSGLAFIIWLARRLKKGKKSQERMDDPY
Description: These protein spots were then fixed in 3% glutaraldehyde, unreactive aldehyde groups were blocked in 0.2M lysine and slides were kept in RPMI-1640 without NaBicarbonate/2% FBS until ready for testing. Lymphocytes (10^7/ml RPMI-1640 without NaBicarbonate/5% FBS) were overlayed onto these fixed immunoprecipitates and incubated on an orbital shaker at 80 rpm for 30 min. at 4° C. The number of adherent lymphocytes was quantified by light microscopy using an ocular grid under 100× magnification (a minimum of 5 fields/slide, 2 slides/experiment, and 3 separate experiments). Data were presented as the mean number of bound lymphocytes±standard deviation. KG1a CD34 and L-selectin control immunoprecipitates were also tested in this manner. To verify the dependence for sialic acid, glutaraldehyde-fixed spots were treated with Vibrio cholerae neuraminidase (0.1 U/ml RPMI-1640 without NaBicarbonate/2% FBS for lhr at 37° C.).
Immunoaffinity purified material (0.75-3 μg/spot) was spotted onto glass slides for analyses in the Stamper-Woodruff assay (See below for assay description). For autoradiographic analysis of immunoprecipitated [^35S]-methionine-radiolabeled CD44 and PSGL-1, immunoprecipitates were spotted onto glass slides, allowed to dry and exposed Kodak BioMax-MR film for 12 h at −80° C. Densitometric analysis (optical density) of the autoradiograms was performed with a Hewlett-Packard Scanj et 5200C scanner and NIH Image processing and analysis program.

L-selectin [3] = test: Blot rolling assay with L-selectin-expressing lymphocytes; assay type: cell-based; conditions: 2.3 dynes/cm^2
Description: L-selectin-expressing lymphocytes were isolated as previously described (Oxley, S. M. & Sackstein, R. (1994). Blood. 84:3299-3306; Sackstein, R., Fu, L. and Allen, K. L. (1997) Blood. 89:2773-2781), washed twice in HBSS and suspended at 2×10^7/ml in HBSS/10 mM HEPES/2mMCaCl2 (H/H/Ca^++)/10% glycerol. Cell lysate material is separated by SDS-PAGE and transferred to PVDF under standard blotting conditions. Western blots of KG1a membrane preparations stained with HECA-452, A3D8 or Hermes-1 were rendered transparent by incubating them in H/H/Ca^++/10% glycerol. To study L-selectin-mediated adhesive interactions, the blots were placed in the parallel plate flow chamber and lymphocytes were perfused into the chamber at a shear force of 2.3 dynes/cm^2 and cellular adhesive interactions are observed by video microscopy and analyzed in real time.
The number of lymphocytes rolling on and between each immunostained banding region was quantified from five independent fields under 200× magnification on the video monitor using molecular weight markers as guides to help align and visualize the proteins of interest. A minimum of 3 experiments were performed, and results were expressed as the mean of cell rolling/field.

E-selectin [4] = target: T1, E-selectin; test: Blot rolling assay with CHO-E cells; assay type: cell-based; conditions: immunoprecipitated CD44 on Western blot; 3.8 dynes/cm^2
Description: The blot rolling assay was performed as previously described (Dimitroff et al., 2000). Briefly, CHO-E, CHO—P or CHO-Mock transfectants were isolated as described above, washed twice in HBSS and suspended at 10^7/ml in HBSS/10 mM HEPES/2mMCaCl2 (H/H/Ca++)/10% glycerol. Western blots of HPC membrane preparations stained with HECA-452 were rendered transparent by incubating them in H/H/Ca++/10% glycerol. The blots were then placed in the parallel-plate flow chamber, and CHO transfectants (2×10^6/ml) were perfused into the chamber. After allowing the cells to come in contact with the blotting membrane, the flow rate was adjusted to exert a shear stress of 3.8 dynes/cm^2. The viscosity of 10% glycerol adhesion assay medium was considered in the calculation of shear stress values. The number of cells rolling on and between each immunostained banding region was quantified under 100× magnification within each field of view on the video monitor using molecular weight markers (Kaleidoscope Molecular Weight Markers, Bio-Rad Lab.; See Blue® from Novex, Inc.) as guides to help align and visualize the apparent molecular weights of the proteins of interest. A minimum of 3 experiments was performed and results were expressed as the mean±SD of cell rolling/field at 100× magnification.

CD44 = test: [35S]-SO4 metabolic labeling of CD44 in KG1a cells; assay type: cell-based, human; conditions: 10 mM sodium chlorate for 24 hr after bromelain
Text: To determine if CD44 on KG1a cells is sulfated, KG1a cell cultures were metabolically labeled with [^35S]-SO4. CD44 immunoprecipitated from these cells was indeed sulfated (FIG. 11 A). To test whether sulfation was critical for L-selectin ligand activity of CD44, KG1a cells were pretreated with 0.1% bromelain, a protease that eliminates all KG1a HCLL activity (Sackstein, R. & Dimitroff, C. J. (2000). Blood. 96, 2765-2774) and also removes CD44 from the cell surface (Hale, L. P. & Haynes, B. F. (1992). J. Immunol 149:3809-3816). Following bromelain digestion of KG1a, re-expression of HCELL requires de novo protein synthesis, and protein synthesized in the presence of chlorate (a metabolic inhibitor of both protein and carbohydrate sulfation) is non-sulfated (Sackstein, R., Fu, L. and Allen, K. L. (1997). Blood. 89:2773-2781). Therefore, KG1a was treated with bromelain and confirmed removal of CD44 by flow cytometry. The KG1a cells were cultured in the absence or presence of 10 mM sodium chlorate for 24 hr and metabolically radiolabeled the cells for the last 8 hr of incubation with [^35S]-SO4 in sulfate-deficient CRCM-30 medium. […] This effect of chlorate was specific for sulfate incorporation and not a general inhibition of CD44 protein synthesis, as [^35S]-methionine/cysteine metabolic radioloabeling of CD44 was identical in chlorate- and non-chlorate-treated cell populations.

HL60 cells = test: CHO-E cell rolling on glutaraldehyde-fixed HL60 monolayers; assay type: cell-based, human; conditions: 2.8 dynes/cm^2; EDTA 5 mM; HECA 452 50 μg/ml
Text: (§1) E-selectin-mediated adhesive interactions, under defined shear stress, were examined between hematopoietic cell monolayers and suspensions of CHO-E (Chinese hamster ovary cells stably transfected with full-length cDNA encoding human E-selectin) in flow. CHO-E and empty vector constructs (CHO-Mock) were maintained in MEM 10% FBS/1% Penicillin/Streptomycin (Life Technologies, Inc.) and HAM's F-12 (Cellgro, Inc.)/5% FCS/1% Penicillin/Streptomycin, respectively. CHO-E cell tethering and rolling on hematopoietic cell monolayers was visualized by video microscopy in real time using the parallel-plate flow chamber. […] To prepare hematopoietic cell monolayers>90% confluent, suspensions of cells (KG1a, HL60, K562, or RPMI 8402) at 2×10^6/ml RPMI1640 without NaBicarbonate/2% FBS were cytocentrifuged in […] plates at 5×10^6/well and then fixed in 3% glutaraldehyde. Reactive aldehyde groups were blocked in 0.2M lysine, and plated cells were suspended H/H/Ca++. […] The number of CHO-E/Mock cell rolling on each monolayer was measured in one frame of five independent fields under 10× magnification from multiple experiments. A minimum of 3 experiments was performed and results were expressed as the mean±standard deviation.

KG1a cells [5] = test: L-selectin ligand activity of treated KG1a cells, parallel-plate flow chamber; assay type: cell-based, human; conditions: thoracic duct lymphocytes, shear stress 4.4 dynes/cm^2
Description: Leukocyte tethering and rolling on human HC monolayers was visualized by video microscopy in real time using the parallel-plate flow chamber prepared in the following manner. Prior to experimentation, leukocytes were washed twice in HBSS and then suspended at 10^7/ml in HBSS/10 mM HEPES/2mMCaCl2 (H/H/Ca^++). […] To prepare human HC monolayers (100% confluent), suspensions of HCs (KG 1a, HL60, RPMI 8402, K562) at 2×10^6/ml RPMI-1640 without Na+Bicarbonate/2% FBS were seeded in 6-well plates at 5×10^6/well, centrifuged to layer cells then fixed in 3% glutaraldehyde. Reactive aldehyde groups were blocked in 0.2M lysine, and plated cells were suspended H/H/Ca^++. To assess the dependence of binding by sialic acid residues on L-selectin ligands, cells were pretreated with Vibrio cholerae neuraminidase (0.1 U/mlH/H/Ca^++ for lhr at 37° C.). To examine the contribution of sialomucins (including PSGL-1) and PSGL-1 alone, OSGE (60 μg/ml H/H/Ca^++ for lhr at 37° C.) or mocarhagin (10 μg/ml for 20 min at 37° C.) treatments were performed, respectively. […] The number of leukocytes rolling in one frame of five independent fields under 200× magnification at shear stress of 0.2, 0.4, 0.8, 2.2, 4.4, 8.8, 17.6 and 26.4 dynes/cm^2 were quantified. A minimum of 3 experiments was performed over the entire range of shear stress and results were expressed as the mean±standard deviation.

KG1a cells [6] = test: CHO-E cell rolling on glutaraldehyde-fixed KG1a monolayers; assay type: cell-based, human; conditions: 2.8 dynes/cm^2; EDTA 5 mM; HECA 452 50 μg/ml
Text: as §1

## KG1a N-glycosidase-F CD44: CD44 immunoprecipitated from N-glycosidase-F-treated KG1a membrane protein
E-selectin [1]
  E-selectin ligand activity (CHO-E cell rolling): abrogated CHO-E cell rolling
L-selectin [2]
  Mean Number of Bound Lymphocytes: 30.7
L-selectin [3]
  L-selectin ligand activity (lymphocyte tethering and rolling) in blot rolling assay: abolished all L-selectin-mediated lymphocyte tethering and rolling
E-selectin [4]
  E-selectin ligand activity (CHO-E cell rolling) in blot rolling assay: completely abrogated CHO-E cell rolling

## [O-][Cl+2]([O-])O [chlorate, sodium chlorate]
CD44
  incorporation of [35S]-SO4 into immunoprecipitable CD44 (Hermes-1): completely inhibited

## neuraminidase: Vibrio cholerae neuraminidase, cleaves terminal sialic acids
HL60 cells
  CHO-E cell rolling / E-selectin ligand activity of HL60 cells: completely inhibited
KG1a cells [5]
  % Control Mean Lymphocyte Binding: 0.3 % Control
KG1a cells [6]
  CHO-E cell rolling / E-selectin ligand activity of KG1a cells: completely inhibited
